{"source": "BindingDB's records for doi:10.1016/j.bmcl.2005.06.069", "about": "(National Health Research Institutes, 2005)", "molecular_target": "Echovirus 9", "test": "Inhibitory activity against Echovirus 9 using plaque reduction assay"}
{"smiles": "C[C@H](CCOc1ccc(-c2ccc(Cl)cc2)cc1)CCN1CCN(c2ccncc2)C1=O", "note": "[1-[(S)-5-(4'-Chloro-biphenyl-4-yloxy)-3-methyl-pentyl]-3-pyridin-4-yl-imidazolidin-2-one]", "values": [{"measurement": "IC50", "value": "> 25", "unit": "µM"}]}
